Source: PubChem BioAssay AID330 (DTP/NCI, 2004)
“And” between values parts separate entries of the source, which are not always exact repeats. Equal values may be shown once. Toxic doses and inconclusive results are not listed. Rule for the calls: active = survival T/C of 150% or more; inactive = T/C below 125% in these data.

Tested on: P388 leukemia ip, CD2F1 mice, survival T/C
Assay: NCI In Vivo Anticancer Drug Screen. Data for tumor model P388 Leukemia (intraperitoneal) in CD2F1 (CDF1) mice
Details: endpoint: median survival time, higher = longer survival
Outline: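 Mice carrying the transplanted tumor received test compound or vehicle. Survival was recorded in each group, and the value is the treated-group measurement divided by that of the vehicle-treated control group.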

[1] = dose: 100.0 mg/kg/injection, schedule: Q04DX003 (ip), vehicle: saline with Tween-80
[2] = dose: 200.0 mg/kg/injection, schedule: Q04DX003 (ip), vehicle: saline with Tween-80
[3] = dose: 400.0 mg/kg/injection, schedule: Q04DX003 (ip), vehicle: saline with Tween-80
[4] = dose: 15.0 mg/kg/injection, schedule: Q01DX005 (ip), vehicle: saline with Tween-80
[5] = dose: 30.0 mg/kg/injection, schedule: Q01DX005 (ip), vehicle: saline with Tween-80
[6] = dose: 60.0 mg/kg/injection, schedule: Q01DX005 (ip), vehicle: saline with Tween-80
[7] = dose: 240.0 mg/kg/injection, schedule: Q01DX005 (ip), vehicle: saline with Tween-80
[8] = dose: 120.0 mg/kg/injection, schedule: Q01DX005 (ip), vehicle: saline with Tween-80
[9] = dose: 50.0 mg/kg/injection, schedule: Q01DX005 (ip), vehicle: saline
[10] = dose: 100.0 mg/kg/injection, schedule: Q01DX001 (ip), vehicle: saline with Tween-80
[11] = dose: 200.0 mg/kg/injection, schedule: Q01DX001 (ip), vehicle: saline with Tween-80
[12] = dose: 400.0 mg/kg/injection, schedule: Q01DX001 (ip), vehicle: saline with Tween-80

Measured: T/C

CCOc1ccc(/C=N/NS(=O)(=O)c2ccccc2)cc1OC
inactive: [1] 100 % of control | [2] 95 % of control | [3] 100 % of control

[O-]/[N+](C1C(Cl)C2CC1C1C=CCC12)=[N+](\[O-])C1C(Cl)C2CC1C1C=CCC12 (configuration not stated)
inactive: [4] 95 % of control | [5] 92 % of control | [6] 100 % of control and 86 % of control

Cc1cc(C(=O)N/N=C/c2cc(Cl)cc(Cl)c2O)c2cc(Br)ccc2n1
inactive: dose: 50.0 mg/kg/injection, schedule: Q01DX009 (ip), vehicle: saline with Tween-80 91 % of control | dose: 100.0 mg/kg/injection, schedule: Q01DX009 (ip), vehicle: saline with Tween-80 91 % of control | dose: 200.0 mg/kg/injection, schedule: Q01DX009 (ip), vehicle: saline with Tween-80 93 % of control

O=C1NC(=O)C2(F)CC3(CCCCC3)C2N1 (configuration not stated)
inactive: dose: 1.5 mg/kg/injection, schedule: Q01DX005 (ip), vehicle: Klucel (hydroxypropylcellulose) (HPC) 100 % of control | dose: 3.0 mg/kg/injection, schedule: Q01DX005 (ip), vehicle: Klucel (hydroxypropylcellulose) (HPC) 102 % of control | dose: 6.0 mg/kg/injection, schedule: Q01DX005 (ip), vehicle: Klucel (hydroxypropylcellulose) (HPC) 94 % of control | dose: 12.5 mg/kg/injection, schedule: Q01DX001 (ip), vehicle: Klucel (hydroxypropylcellulose) (HPC) 103 % of control

N=c1nc(N)nc2c3ccccc3nnn12
inactive: [4] 109 % of control | [5] 109 % of control | [6] 106 % of control and 109 % of control

COC(=O)c1c(OC)c(Cl)c2cc3c(c(O)c2c1C)C(=O)[C@@]1(O)C(=O)C=C(OC)[C@H](O)[C@@]1(O)C3=O
inactive: dose: 11.0 mg/kg/injection, schedule: Q01DX005 (ip), vehicle: saline with Tween-80 103 % of control | dose: 22.0 mg/kg/injection, schedule: Q01DX005 (ip), vehicle: saline with Tween-80 105 % of control | dose: 44.0 mg/kg/injection, schedule: Q01DX005 (ip), vehicle: saline with Tween-80 89 % of control | dose: 88.0 mg/kg/injection, schedule: Q01DX005 (ip), vehicle: saline with Tween-80 94 % of control | dose: 176.0 mg/kg/injection, schedule: Q01DX005 (ip), vehicle: saline with Tween-80 99 % of control

O=C1CSC(c2cccc(Cl)c2Cl)N1c1nncs1 (configuration not stated)
inactive: dose: 100.0 mg/kg/injection, schedule: Q04DX002 (ip), vehicle: saline with Tween-80 112 % of control | dose: 200.0 mg/kg/injection, schedule: Q04DX002 (ip), vehicle: saline with Tween-80 94 % of control | dose: 400.0 mg/kg/injection, schedule: Q04DX002 (ip), vehicle: saline with Tween-80 97 % of control

COc1ccc(NC(=O)CCC2=CC(=O)CC(c3ccccc3)O2)cc1 (configuration not stated)
inactive: [6] 105 % of control | dose: 124.0 mg/kg/injection, schedule: Q01DX005 (ip), vehicle: saline with Tween-80 104 % of control | [7] 104 % of control

COc1ccc2c(=O)c(-c3ccc(OC)c(OC)c3)c(C)oc2c1
inactive: [6] 94 % of control | [8] 91 % of control | [7] 86 % of control

OCCCCCCCCCCCCCC1C=CCC1 (configuration not stated)
inactive: dose: 100.0 mg/kg/injection, schedule: Q01DX001 (ip), vehicle: saline 104 % of control | dose: 200.0 mg/kg/injection, schedule: Q01DX001 (ip), vehicle: saline 100 % of control | dose: 400.0 mg/kg/injection, schedule: Q01DX001 (ip), vehicle: saline 100 % of control

O=c1[nH]c2c(Cl)c(Cl)c(Cl)c(Cl)c2[nH]c1=O
inactive: dose: 50.0 mg/kg/injection, schedule: Q01DX005 (ip), vehicle: saline with Tween-80 90 % of control | dose: 100.0 mg/kg/injection, schedule: Q01DX005 (ip), vehicle: saline with Tween-80 87 % of control

CC(=O)CC(C)c1ccc(C(C)CC(C)=O)o1 (configuration not stated)
inactive: [6] 104 % of control | [8] 106 % of control | [7] 104 % of control

CSc1noc(N)n1
inactive: dose: 12.5 mg/kg/injection, schedule: Q01DX005 (ip), vehicle: saline 94 % of control | dose: 25.0 mg/kg/injection, schedule: Q01DX005 (ip), vehicle: saline 91 % of control | [9] 103 % of control and 94 % of control

CCCCCCCCCC1OCN2CCCCC12 (configuration not stated)
inactive: [9] 105 % of control | dose: 100.0 mg/kg/injection, schedule: Q01DX005 (ip), vehicle: saline 96 % of control | dose: 200.0 mg/kg/injection, schedule: Q01DX005 (ip), vehicle: saline 115 % of control

O=c1c(CSc2c(-c3ccccc3)c(=O)c2=O)c(-c2ccccc2)c1=O
inactive: [10] 101 % of control | [11] 104 % of control | [12] 95 % of control

COc1ccc2c(c1)CCCC(Br)C2=O (configuration not stated)
inactive: dose: 25.0 mg/kg/injection, schedule: Q01DX009 (ip), vehicle: distilled water + alcohol 107 % of control | dose: 50.0 mg/kg/injection, schedule: Q01DX009 (ip), vehicle: distilled water + alcohol 105 % of control | dose: 100.0 mg/kg/injection, schedule: Q01DX009 (ip), vehicle: distilled water + alcohol 120 % of control | dose: 200.0 mg/kg/injection, schedule: Q01DX009 (ip), vehicle: distilled water + alcohol 122 % of control

O=C(/C=C/c1ccc(F)cc1)c1ccc(Cl)cc1
inactive: [1] 90 % of control | [2] 86 % of control | [3] 100 % of control

O=C(O)Cc1c[nH]c2ccccc12
inactive: [10] 105 % of control | [11] 100 % of control | [12] 99 % of control

CCOC(=O)c1nc(Cl)nc(Cl)c1I
inactive: dose: 3.13 mg/kg/injection, schedule: Q01DX009 (ip), vehicle: distilled water + Tween-80 99 % of control | dose: 6.25 mg/kg/injection, schedule: Q01DX009 (ip), vehicle: distilled water + Tween-80 110 % of control | dose: 12.5 mg/kg/injection, schedule: Q01DX009 (ip), vehicle: distilled water + Tween-80 112 % of control and 123 % of control | dose: 25.0 mg/kg/injection, schedule: Q01DX009 (ip), vehicle: distilled water + Tween-80 101 % of control and 112 % of control | dose: 50.0 mg/kg/injection, schedule: Q01DX009 (ip), vehicle: distilled water + Tween-80 90 % of control

COc1ccc(CC(=O)NCCc2ccc3cc(OC)c(OC)cc3c2)cc1OC
inactive: [1] 100 % of control | [2] 100 % of control | [3] 100 % of control

CCCCCCCCCCCC(=O)OC1CCC2(C)C(=CCC3C2CCC2(C)C(C(C)/C=C/C(CC)C(C)C)CCC32)C1 (configuration not stated)
inactive: dose: 100.0 mg/kg/injection, schedule: Q04DX003 (ip), vehicle: other 102 % of control | dose: 200.0 mg/kg/injection, schedule: Q04DX003 (ip), vehicle: other 102 % of control

CCCCCCCCCCCCCC[N+]1(CC)CCCC1
inactive: dose: 6.25 mg/kg/injection, schedule: Q04DX002 (ip), vehicle: saline 119 % of control | dose: 12.5 mg/kg/injection, schedule: Q04DX002 (ip), vehicle: saline 86 % of control

COc1cc2c3c(n(C)c(=O)c2cc1OC)-c1cc2c(cc1C3=O)OCO2
inactive: dose: 2.0 mg/kg/injection, schedule: Q01DX009 (ip), vehicle: distilled water + Tween-80 98 % of control | dose: 4.0 mg/kg/injection, schedule: Q01DX009 (ip), vehicle: distilled water + Tween-80 100 % of control | dose: 8.0 mg/kg/injection, schedule: Q01DX009 (ip), vehicle: distilled water + Tween-80 107 % of control | dose: 16.0 mg/kg/injection, schedule: Q01DX009 (ip), vehicle: distilled water + Tween-80 98 % of control | dose: 32.0 mg/kg/injection, schedule: Q01DX009 (ip), vehicle: distilled water + Tween-80 100 % of control | dose: 64.0 mg/kg/injection, schedule: Q01DX009 (ip), vehicle: distilled water + Tween-80 99 % of control and 109 % of control | dose: 128.0 mg/kg/injection, schedule: Q01DX009 (ip), vehicle: distilled water + Tween-80 111 % of control and 123 % of control | dose: 256.0 mg/kg/injection, schedule: Q01DX009 (ip), vehicle: distilled water + Tween-80 100 % of control and 92 % of control
